# Source: USRE39591E1, “6-O-substituted ketolides having antibacterial activity” (Abbott Laboratories, priority 1996, dated 2007)
# Test system: up to 32 different microorganisms
# Test: in vitro antibacterial activity (MIC), agar dilution on Brain Heart Infusion (BHI) agar with Steers replicator
# Format: cell-based
# Settings: unit assumed
# Method in brief: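 Agar dilution, 12 plates/compound; inoc 1:100 (1:10 Micrococcus, Streptococcus); 35°-37° C, 20–24 h. Erythromycin A reference plate plus drug-free growth controls at start and end. Endpoint = no growth/slight haze/sparse colonies.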
SMILES,MIC (organism code AA) [µg/mL],MIC (organism code BB) [µg/mL],MIC (organism code CC) [µg/mL],MIC (organism code DD) [µg/mL],MIC (organism code EE) [µg/mL],MIC (organism code FF) [µg/mL],MIC (organism code GG) [µg/mL],MIC (organism code HH) [µg/mL],MIC (organism code II) [µg/mL],MIC (organism code JJ) [µg/mL],MIC (organism code KK) [µg/mL],MIC (organism code LL) [µg/mL],MIC (organism code MM) [µg/mL],MIC (organism code NN) [µg/mL],MIC (organism code OO) [µg/mL],MIC (organism code PP) [µg/mL],MIC (organism code QQ) [µg/mL],MIC (organism code RR) [µg/mL],MIC (organism code SS) [µg/mL],MIC (organism code TT) [µg/mL],other results
"CC[C@H]1OC(=O)[C@H](C)C(=O)[C@H](C)[C@@H](O[C@@H]2O[C@H](C)C[C@H](N(C)C)[C@H]2O)[C@@](C)(OCCNOCc2ccc([N+](=O)[O-])cc2)C[C@@H](C)C(=O)[C@H](C)[C@H]2NC(=O)O[C@@]21C [Example 238, Compound of Formula (IX): L is CO, T is NH, R is —CH2CH2NHOCH2(4-NO2)-phenyl]",0.2,0.2,> 100,0.39,0.39,0.39,> 100,0.39,0.05,0.02,0.02,0.02,> 100,0.2,0.05,0.2,100,0.39,> 100,> 100,MIC (organism code UU): 0.2 µg/mL; MIC (organism code VV): 0.1 µg/mL; MIC (organism code WW): 8 µg/mL; MIC (organism code XX): 0.03 µg/mL; MIC (organism code YY): 0.03 µg/mL; MIC (organism code ZZ): > 64 µg/mL; MIC (organism code ZZA): 0.25 µg/mL
"CC[C@H]1OC(=O)[C@H](C)C(=O)[C@H](C)[C@@H](O[C@@H]2O[C@H](C)C[C@H](N(C)C)[C@H]2O)[C@@](C)(OCC=NOCc2ccccc2)C[C@@H](C)C(=O)[C@H](C)[C@H]2NC(=O)O[C@@]21C [Example 229, Compound of Formula (IX): L is CO, T is NH, R is —CH2CH═NOCH2(phenyl)]",0.2,0.2,> 100,0.2,0.2,0.2,> 100,0.2,0.05,≤ 0.005,0.02,0.01,50,0.2,0.02,0.05,> 100,0.39,> 100,> 100,MIC (organism code UU): 1.56 µg/mL; MIC (organism code VV): 0.2 µg/mL; MIC (organism code WW): 2 µg/mL; MIC (organism code XX): ≤ 0.004 µg/mL; MIC (organism code YY): ≤ 0.004 µg/mL; MIC (organism code ZZ): > 128 µg/mL; MIC (organism code ZZA): 0.125 µg/mL
"CC[C@H]1OC(=O)[C@H](C)C(=O)[C@H](C)[C@@H](O[C@@H]2O[C@H](C)C[C@H](N(C)C)[C@H]2O)[C@@](C)(OCC#CBr)C[C@@H](C)C(=O)[C@H](C)[C@H]2NC(=O)O[C@@]21C [Example 258, Compound of Formula (IX): L is CO, T is NH, R is —CH2—C≡C—Br]",0.78,0.39,> 100,0.78,0.39,0.78,> 100,0.78,0.39,0.05,0.1,0.05,> 100,0.2,0.1,0.39,> 100,0.78,> 100,> 100,MIC (organism code UU): 12.5 µg/mL; MIC (organism code VV): 0.39 µg/mL; MIC (organism code WW): 32 µg/mL; MIC (organism code XX): 0.03 µg/mL; MIC (organism code YY): 0.03 µg/mL; MIC (organism code ZZ): > 128 µg/mL; MIC (organism code ZZA): 0.125 µg/mL
